Measured values: PubChem BioAssay AID2060605 (Molecular Pharmacology Branch, DTP, NCI, 2025)
Where “and” joins values, the source holds several entries; their conditions need not be identical. Identical values can stand only once.

Test system: 947758-054-R-J2-PDC spheroid growth, percent test/control
Assay: Anticancer human tumor 947758-054-R-J2-PDC patient-derived colon adenocarcinoma cell line growth inhibition [CLK]
Settings: spheroids with HUVEC and MSC; for viability, T/C: stronger effect = lower value
How it was run: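 Multi-cell-type spheroids combined patient-derived tumor cells with HUVEC endothelial cells and human mesenchymal stem cells. Paired agents were dosed in half-log steps down from about clinical Cmax, or from 10 microM where Cmax was unknown.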

[1] = curve of first compound, second compound 0.0316 µM
[2] = curve of first compound, second compound 0.1 µM
[3] = curve of first compound, second compound 0.316 µM
[4] = curve of first compound, second compound 1 µM
[5] = curve of first compound, second compound 3.16 µM
[6] = curve of first compound, second compound 10 µM
[7] = second compound 0.0316 µM, first compound 0.0316 µM
[8] = second compound 0.0316 µM, first compound 0.1 µM
[9] = second compound 0.0316 µM, first compound 0.316 µM
[10] = second compound 0.0316 µM, first compound 1 µM
[11] = second compound 0.0316 µM, first compound 3.16 µM
[12] = second compound 0.0316 µM, first compound 10 µM
[13] = second compound 0.1 µM, first compound 0.0316 µM
[14] = second compound 0.1 µM, first compound 0.1 µM
[15] = second compound 0.1 µM, first compound 0.316 µM
[16] = second compound 0.1 µM, first compound 1 µM
[17] = second compound 0.1 µM, first compound 3.16 µM
[18] = second compound 0.1 µM, first compound 10 µM
[19] = second compound 0.316 µM, first compound 0.0316 µM
[20] = second compound 0.316 µM, first compound 0.1 µM
[21] = second compound 0.316 µM, first compound 0.316 µM
[22] = second compound 0.316 µM, first compound 1 µM
[23] = second compound 0.316 µM, first compound 3.16 µM
[24] = second compound 0.316 µM, first compound 10 µM
[25] = second compound 1 µM, first compound 0.0316 µM
[26] = second compound 1 µM, first compound 0.1 µM
[27] = second compound 1 µM, first compound 0.316 µM
[28] = second compound 1 µM, first compound 1 µM
[29] = second compound 1 µM, first compound 3.16 µM
[30] = second compound 1 µM, first compound 10 µM
[31] = second compound 3.16 µM, first compound 0.0316 µM
[32] = second compound 3.16 µM, first compound 0.1 µM
[33] = second compound 3.16 µM, first compound 0.316 µM
[34] = second compound 3.16 µM, first compound 1 µM
[35] = second compound 3.16 µM, first compound 3.16 µM
[36] = second compound 3.16 µM, first compound 10 µM
[37] = second compound 10 µM, first compound 0.0316 µM
[38] = second compound 10 µM, first compound 0.1 µM
[39] = second compound 10 µM, first compound 0.316 µM
[40] = second compound 10 µM, first compound 1 µM
[41] = second compound 10 µM, first compound 3.16 µM
[42] = second compound 10 µM, first compound 10 µM
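Further: spheroids exposed to compounds for one week before readout.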
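Wherever viability, T/C is given: 100% = DMSO vehicle control wells.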

C=C(F)C(=O)N1CCN(c2nc(OCC3CCCN3C)nc3c2CCN(c2cccc4cccc(Cl)c24)C3)CC1CC#N (stereo not given) + CN1CCN(c2cc(C(=O)Nc3cc4cc(-c5cnn(C)c5)ccc4cn3)ccn2)CC1
IC50 [1]: 6610 nM | IC50 [2]: 7050 nM | IC50 [3]: < 31.6 nM | IC50 [4]: < 31.6 nM | IC50 [5]: < 31.6 nM | IC50 [6]: < 31.6 nM | viability, T/C [7]: 122% | viability, T/C [8]: 116% | viability, T/C [9]: 109% | viability, T/C [10]: 107% | viability, T/C [11]: 146% | viability, T/C [12]: 10.6% | viability, T/C [13]: 149% | viability, T/C [14]: 201% | viability, T/C [15]: 181% | viability, T/C [16]: 220% | viability, T/C [17]: 154% | viability, T/C [18]: 4.69% | viability, T/C [19]: 4.5% | viability, T/C [20]: 5.53% | viability, T/C [21]: 5.34% | viability, T/C [22]: 6.82% | viability, T/C [23]: 8.16% | viability, T/C [24]: 1.5% | viability, T/C [25]: 0.18% | viability, T/C [26]: 1.06% | viability, T/C [27]: 0.17% | viability, T/C [28]: 2.25% | viability, T/C [29]: 0.12% | viability, T/C [30]: 0.96% | viability, T/C [31]: 1.29% | viability, T/C [32]: 0.25% | viability, T/C [33]: 0.21% | viability, T/C [34]: 0.24% | viability, T/C [35]: 0.14% | viability, T/C [36]: 0.12% | viability, T/C [37]: 1.57% | viability, T/C [38]: 1.69% | viability, T/C [39]: 0.29% | viability, T/C [40]: 0.31% | viability, T/C [41]: 1.29% | viability, T/C [42]: 1.41%

CCc1c2c(nc3ccc(O)cc13)-c1cc3c(c(=O)n1C2)COC(=O)[C@]3(O)CC + CNC(=O)c1ccc(Nc2nc(OC3CCCC3)c3c(-c4ccc5nc(C)oc5c4)c[nH]c3n2)c(OC)c1
IC50 [1]: < 3.16 nM | IC50 [2]: 4.57 nM | IC50 [3]: < 3.16 nM | IC50 [4]: < 3.16 nM | IC50 [5]: < 3.16 nM | IC50 [6]: < 3.16 nM | viability, T/C (second compound 0.0316 µM, first compound 0.00316 µM): 45.2% | viability, T/C (second compound 0.0316 µM, first compound 0.01 µM): 30.2% | viability, T/C [7]: 23.5% | viability, T/C [8]: 17.9% | viability, T/C [9]: 8.37% | viability, T/C [10]: 1.73% | viability, T/C (second compound 0.1 µM, first compound 0.00316 µM): 59.9% | viability, T/C (second compound 0.1 µM, first compound 0.01 µM): 28.5% | viability, T/C [13]: 18.2% | viability, T/C [14]: 16.5% | viability, T/C [15]: 8.07% | viability, T/C [16]: 3% | viability, T/C (second compound 0.316 µM, first compound 0.00316 µM): 34.3% | viability, T/C (second compound 0.316 µM, first compound 0.01 µM): 29.1% | viability, T/C [19]: 16.8% | viability, T/C [20]: 13.8% | viability, T/C [21]: 6.27% | viability, T/C [22]: 1.02% | viability, T/C (second compound 1 µM, first compound 0.00316 µM): 34% | viability, T/C (second compound 1 µM, first compound 0.01 µM): 20.6% | viability, T/C [25]: 10.7% | viability, T/C [26]: 8.46% | viability, T/C [27]: 2.97% | viability, T/C [28]: 0.31% | viability, T/C (second compound 3.16 µM, first compound 0.00316 µM): 31.6% | viability, T/C (second compound 3.16 µM, first compound 0.01 µM): 16.2% | viability, T/C [31]: 12.2% | viability, T/C [32]: 6.75% | viability, T/C [33]: 4.2% | viability, T/C [34]: 0.54% | viability, T/C (second compound 10 µM, first compound 0.00316 µM): 29.3% | viability, T/C (second compound 10 µM, first compound 0.01 µM): 19.5% | viability, T/C [37]: 11.5% | viability, T/C [38]: 5.96% | viability, T/C [39]: 2.11% | viability, T/C [40]: 0.68%

CC1COCCN1c1cc(C2(S(C)(=N)=O)CC2)nc(-c2ccnc3[nH]ccc23)n1 (stereo not given) + CN1CCN(c2cc(C(=O)Nc3cc4cc(-c5cnn(C)c5)ccc4cn3)ccn2)CC1
IC50 [1]: 8190 nM | IC50 [2]: 4290 nM | IC50 [3]: < 31.6 nM | IC50 [4]: < 31.6 nM | IC50 [5]: < 31.6 nM | IC50 [6]: < 31.6 nM | viability, T/C [7]: 129% | viability, T/C [8]: 130% | viability, T/C [9]: 147% | viability, T/C [10]: 208% | viability, T/C [11]: 174% | viability, T/C [12]: 27.1% | viability, T/C [13]: 156% | viability, T/C [14]: 161% | viability, T/C [15]: 134% | viability, T/C [16]: 111% | viability, T/C [17]: 59.6% | viability, T/C [18]: 20.6% | viability, T/C [19]: 4.56% | viability, T/C [20]: 7.68% | viability, T/C [21]: 5.32% | viability, T/C [22]: 4.07% | viability, T/C [23]: 7.49% | viability, T/C [24]: 2.19% | viability, T/C [25]: 0.17% | viability, T/C [26]: 0.18% | viability, T/C [27]: 0.17% | viability, T/C [28]: 2.01% | viability, T/C [29]: 2.61% | viability, T/C [30]: 0.13% | viability, T/C [31]: 0.74% | viability, T/C [32]: 0.2% | viability, T/C [33]: 0.39% | viability, T/C [34]: 1.46% | viability, T/C [35]: 1.04% | viability, T/C [36]: 0.96% | viability, T/C [37]: 1.2% | viability, T/C [38]: 0.28% | viability, T/C [39]: 1.41% | viability, T/C [40]: 1.13% | viability, T/C [41]: 1.09% | viability, T/C [42]: 0.51%

COc1cccc2c1C(=O)c1c(O)c3c(c(O)c1C2=O)CC(O)(C(=O)CO)CC3OC1CC(N)C(O)C(C)O1 (stereo not given) + CN1CCN(c2cc(C(=O)Nc3cc4cc(-c5cnn(C)c5)ccc4cn3)ccn2)CC1
IC50 [1]: 91.3 nM | IC50 [2]: < 31.6 nM | IC50 [3]: < 31.6 nM | IC50 [4]: < 31.6 nM | IC50 [5]: < 31.6 nM | IC50 [6]: < 31.6 nM | viability, T/C [7]: 100% | viability, T/C [8]: 38.9% | viability, T/C [9]: 33.2% | viability, T/C [10]: 4.76% | viability, T/C [11]: 0.5% | viability, T/C [12]: 4.61% | viability, T/C [13]: 44.3% | viability, T/C [14]: 35.4% | viability, T/C [15]: 21.1% | viability, T/C [16]: 1.67% | viability, T/C [17]: 0.35% | viability, T/C [18]: 7.75% | viability, T/C [19]: 1.3% | viability, T/C [20]: 1.49% | viability, T/C [21]: 0.27% | viability, T/C [22]: 0.21% | viability, T/C [23]: 1.68% | viability, T/C [24]: 8.73% | viability, T/C [25]: 0.12% | viability, T/C [26]: 1.01% | viability, T/C [27]: 0.13% | viability, T/C [28]: 0.11% | viability, T/C [29]: 2.81% | viability, T/C [30]: 6.86% | viability, T/C [31]: 0.14% | viability, T/C [32]: 0.96% | viability, T/C [33]: 1.03% | viability, T/C [34]: 0.15% | viability, T/C [35]: 0.83% | viability, T/C [36]: 7.28% | viability, T/C [37]: 0.46% | viability, T/C [38]: 1.26% | viability, T/C [39]: 0.8% | viability, T/C [40]: 0.22% | viability, T/C [41]: 2.33% | viability, T/C [42]: 7.23%

CCc1c2c(nc3ccc(O)cc13)-c1cc3c(c(=O)n1C2)COC(=O)[C@]3(O)CC
viability, T/C (compound 0.00316 µM): 120% and 84.1% | viability, T/C (compound 0.01 µM): 34.2% and 32% | viability, T/C (compound 0.0316 µM): 23.7% and 20.8% | viability, T/C (compound 0.1 µM): 18.7% and 19% | viability, T/C (compound 0.316 µM): 8.36% and 8.83% | viability, T/C (compound 1 µM): 3.07% and 3.43% | IC50 (curve of compound): 8.48 nM and 7.07 nM
